Test results as given in patent publication US20210251237A1, “PLATFORM FOR DEVELOPING SOIL-BORNE PLANT PATHOGEN INHIBITING MICROBIAL CONSORTIA” (priority 2018, published 2021).
Where two headings read alike, the source gives them in different places. Marks after values point to notes of the source that are not given here.

Assays:
F. culmorum = assay: Pathogen suppressive activity plate assay (zone of inhibition); type: cell-based; conditions: Table 1; pathogen isolate P61
Phytophthora sojae = assay: as above; type: cell-based
potato scab = assay: Potato field trials: percent scab control; type: in vivo; design: concentration or dose not given beside the values
Phytophthora medicaginis = assay: Pathogen suppressive activity plate assay (zone of inhibition); type: cell-based; conditions: for zone of inhibition: Table 1; for mean inhibitory zone size: Table 4
Rhizoctonia solani = assay: as above; type: cell-based; conditions: for mean inhibitory zone size: Table 4
[1] = test system: clinical antimicrobials (antibiotic discs); assay: Antibiotic disc resistance/susceptibility assay of microbial isolates; type: cell-based
Fusarium virguliforme = assay: Pathogen suppressive activity plate assay (zone of inhibition); type: cell-based; conditions: Table 4
[2] = test system: GS1, PS1 and PS3 (overlaid isolates); assay: Mutual inhibition activity among GS1, PS1 and PS3; type: cell-based
Method: Each of the microbes—GS1, PS1 and PS3—was grown in the presence of every other isolate (i.e., GS1 with PS1; GS1 with PS3; and PS1 with PS3). Briefly, isolates GS1, PS1 and PS3 were dotted onto the center of individual petri dishes and allowed to grow for 3 days. Dotted isolates were then killed by placing petri dishes over a chloroform-filled watch glass in a safety cabinet for one hour. Subsequently, overlays of the other two isolates spread across the entire petri dish surface. In this way, each isolate was tested as a potential inhibitor (dotted isolates) in combination with every isolate as a target (overlaid isolates). The growth of the microbial isolates was evaluated for the presence or absence of zones of inhibition at the interphase between the bacterial isolates. […] Results from this analysis show the potential for isolates to coexist without inhibiting one another.

Fusarium oxysporum = assay: Pathogen suppressive activity plate assay (zone of inhibition); type: cell-based; conditions: for zone of inhibition: Table 1; for mean inhibitory zone size: Table 4
[3] = test system: Pythium ultimum var. sporangiferum; assay: as above; type: cell-based
Fusarium graminearum = type: cell-based; design: key to pathogen suppression (symbol): + refers to instances where there is some evidence for inhibition immediately over the surface of the dotted strain, but no clear inhibition zone beyond the dotted colony's edge; conditions: for zone of inhibition: Table 1; for pathogen suppression (symbol): Table 4
Sclerotinia sclerotiorum = assay: Pathogen suppressive activity plate assay (zone of inhibition); type: cell-based; conditions: for mean inhibitory zone size: Table 4

## Brevibacillus laterosporus [PS3]
F. culmorum
  zone of inhibition: 5.48 mm
Phytophthora sojae; Table 1, pathogen isolate P52
  zone of inhibition: 0 mm
Phytophthora sojae; Table 4, pathogen target isolate P52
  mean inhibitory zone size: 10.3 mm
Potato scab; experiment BPP, disease on non-inoculated tubers 22.2
  Percent Control (reduction in scab severity vs non-inoculated plots): 27%
Potato scab; experiment BSP, disease on non-inoculated tubers 24.3
  Percent Control (reduction in scab severity vs non-inoculated plots): 40%
Potato scab; experiment BWP, disease on non-inoculated tubers 26.7
  Percent Control (reduction in scab severity vs non-inoculated plots): 30%
Potato scab; experiment RPP, disease on non-inoculated tubers 15.6
  Percent Control (reduction in scab severity vs non-inoculated plots): 23%
Potato scab; experiment RSCRG1, disease on non-inoculated tubers 28.1
  Percent Control (reduction in scab severity vs non-inoculated plots): 34%
Potato scab; experiment RSP, disease on non-inoculated tubers 8.8
  Percent Control (reduction in scab severity vs non-inoculated plots): 42%
Phytophthora medicaginis; pathogen isolate P43
  zone of inhibition: 12.55 mm
Phytophthora medicaginis; pathogen isolate P44
  zone of inhibition: 6.53 mm
Phytophthora medicaginis; pathogen target isolate P43
  mean inhibitory zone size: 5.6 mm
Phytophthora medicaginis; pathogen target isolate P44
  mean inhibitory zone size: 9.125 mm
Rhizoctonia solani; Table 1, pathogen isolate P6
  zone of inhibition: 12.25 mm
Rhizoctonia solani; pathogen target isolate P5
  mean inhibitory zone size: 3.25 mm
Rhizoctonia solani; pathogen target isolate P6
  mean inhibitory zone size: 1.7875 mm
Rhizoctonia solani; pathogen target isolate P12
  mean inhibitory zone size: 1.5 mm
[1]; Amoxicillin Clavulanate
  Antibiotic resistance characteristics: MR (MR-moderately resistant (1-5 mm))
[1]; Chloramphenicol
  Antibiotic resistance characteristics: MS (MS-moderately susceptible (6-10 mm))
[1]; Erythromycin
  Antibiotic resistance characteristics: S (S-susceptible (>10 mm))
[1]; Kanamycin
  Antibiotic resistance characteristics: S (S-susceptible (>10 mm))
[1]; Novobiocin 5
  Antibiotic resistance characteristics: S (S-susceptible (>10 mm))
[1]; Novobiocin 30
  Antibiotic resistance characteristics: S (S-susceptible (>10 mm))
[1]; Rifampin
  Antibiotic resistance characteristics: MR (MR-moderately resistant (1-5 mm))
[1]; Streptomycin
  Antibiotic resistance characteristics: S (S-susceptible (>10 mm))
[1]; Tetracycline
  Antibiotic resistance characteristics: MR (MR-moderately resistant (1-5 mm))
[1]; Vancomycin 5
  Antibiotic resistance characteristics: MS (MS-moderately susceptible (6-10 mm))
[1]; Vancomycin 30
  Antibiotic resistance characteristics: S (S-susceptible (>10 mm))
Fusarium virguliforme; pathogen target isolate P20
  mean inhibitory zone size: 5.2 mm
Fusarium virguliforme; pathogen target isolate P21
  mean inhibitory zone size: 9.5 mm
Fusarium virguliforme; pathogen target isolate P22
  mean inhibitory zone size: 8.975 mm
Fusarium virguliforme; pathogen target isolate P23
  mean inhibitory zone size: 6.175 mm
[2]
  inhibition of the other members of the combination: Neither isolate PS3 nor GS3 inhibit
Fusarium oxysporum; pathogen isolate P27
  zone of inhibition: 0 mm
Fusarium oxysporum; pathogen isolate P29
  zone of inhibition: 0 mm
Fusarium oxysporum; pathogen target isolate P25
  mean inhibitory zone size: 3.725 mm
Fusarium oxysporum; pathogen target isolate P26
  mean inhibitory zone size: 4.1 mm
Fusarium oxysporum; pathogen target isolate P28
  mean inhibitory zone size: 5.6 mm
Fusarium oxysporum; pathogen target isolate P29
  mean inhibitory zone size: 4.225 mm
[3]; Table 1, pathogen isolate P58
  zone of inhibition: 3.73 mm
[3]; Table 4, pathogen target isolate P58
  mean inhibitory zone size: 6.6 mm
Fusarium graminearum; pathogen isolate P31
  zone of inhibition: 10.35 mm
Fusarium graminearum; pathogen isolate P34
  zone of inhibition: 14.58 mm
Fusarium graminearum; pathogen target isolate P30
  pathogen suppression (symbol): +**
Fusarium graminearum; pathogen target isolate P31
  pathogen suppression (symbol): +
Fusarium graminearum; pathogen target isolate P32
  pathogen suppression (symbol): +
Fusarium graminearum; pathogen target isolate P33
  pathogen suppression (symbol): +
Fusarium graminearum; pathogen target isolate P34
  pathogen suppression (symbol): +
Fusarium graminearum; pathogen target isolate P35
  pathogen suppression (symbol): +
Sclerotinia sclerotiorum; Table 1, pathogen isolate P19
  zone of inhibition: 11.48 mm
Sclerotinia sclerotiorum; pathogen target isolate P16
  mean inhibitory zone size: 4.517 mm
Sclerotinia sclerotiorum; pathogen target isolate P17
  mean inhibitory zone size: 5.567 mm
Sclerotinia sclerotiorum; pathogen target isolate P18
  mean inhibitory zone size: 4.975 mm
Sclerotinia sclerotiorum; pathogen target isolate P19
  mean inhibitory zone size: 5.8 mm
